In a compilation of properties of binary mixtures (doi:10.1021/je800965t):

Assay: xn = mol fraction of the nth substance listed
Conditions: 101 kPa

CCCn1cc[n+](C)c1C.F[B-](F)(F)F + O
viscosity [mPa·s]
Conditions | x2 = 0 | x2 = 0.0939 | x2 = 0.1932 | x2 = 0.2833 | x2 = 0.3944 | x2 = 0.4987 | x2 = 0.5995 | x2 = 0.6985 | x2 = 0.8009 | x2 = 0.8988
298.15 K | 377 | 225 | – | 85.3 | 50.6 | 31.29 | 19.71 | 12.03 | 6.69 | 3.23
303.15 K | 272 | 168 | – | 66.8 | – | – | 16.21 | 10.04 | 5.67 | 2.78
308.15 K | 202 | 127.9 | 81.1 | – | – | 21.07 | – | 8.53 | 4.9 | 2.42
313.15 K | 152 | 99.3 | 64.5 | 43.2 | 27.18 | 17.63 | 11.52 | 7.31 | 4.23 | 2.14
318.15 K | 117.4 | – | – | 35.71 | 22.79 | 14.97 | 9.88 | 6.34 | 3.71 | 1.89
323.15 K | 92.3 | 63.3 | 42.8 | 29.65 | 19.32 | 12.87 | 8.58 | 5.55 | 3.29 | 1.69
333.15 K | 60.4 | – | – | 21.37 | 14.38 | 9.78 | – | – | 2.62 | 1.39
343.15 K | 40.7 | – | 21.84 | 16.02 | 11.04 | 7.66 | 5.3 | 3.53 | 2.15 | 1.16

O + CCCn1cc[n+](C)c1C.F[B-](F)(F)F
x1 = 1
Conditions | viscosity [mPa·s]
298.15 K | 0.89
303.15 K | 0.8
313.15 K | 0.65
318.15 K | 0.6
323.15 K | 0.55
333.15 K | 0.47
343.15 K | 0.4
